{"source": "patent US20220362237A1", "about": "“PS[…] TREATMENT OF PAIN” (Mind Medicine, Inc., priority 2021, published 2022)", "origin": "cited, not measured here", "key": {"[1]": {"settings": "grave and terminally ill patients, acute treatment (one or two doses); pain returned after several days"}, "[2]": {"system": "5-HT2B/C"}, "[3]": {"system": "serotonin 5-HT1 receptors"}, "[4]": {"system": "D1-3 receptors"}, "[5]": {"target": "5-HT transporter (SERT) (Homo sapiens, UniProt P31645)", "sequence (P31645 whole entry, species assumed)": "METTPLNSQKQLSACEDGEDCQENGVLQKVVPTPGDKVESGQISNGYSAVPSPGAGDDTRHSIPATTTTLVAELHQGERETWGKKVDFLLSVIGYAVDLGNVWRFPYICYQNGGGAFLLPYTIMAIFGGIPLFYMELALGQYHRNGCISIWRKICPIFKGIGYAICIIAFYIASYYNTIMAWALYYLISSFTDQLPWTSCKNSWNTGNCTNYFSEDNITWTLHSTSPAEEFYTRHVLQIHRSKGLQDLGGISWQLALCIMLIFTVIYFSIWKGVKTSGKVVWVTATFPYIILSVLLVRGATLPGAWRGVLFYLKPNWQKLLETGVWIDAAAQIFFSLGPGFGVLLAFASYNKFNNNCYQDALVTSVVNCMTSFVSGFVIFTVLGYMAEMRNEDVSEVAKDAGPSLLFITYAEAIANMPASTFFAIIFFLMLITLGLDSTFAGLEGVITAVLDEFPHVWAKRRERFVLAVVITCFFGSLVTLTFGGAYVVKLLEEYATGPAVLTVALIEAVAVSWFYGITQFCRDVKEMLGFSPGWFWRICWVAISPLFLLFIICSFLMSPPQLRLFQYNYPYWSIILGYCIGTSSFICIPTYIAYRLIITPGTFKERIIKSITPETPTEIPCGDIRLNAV"}, "[6]": {"settings": "20-microgram dose"}, "[7]": {"target": "5-HT2A receptor (Homo sapiens, UniProt P28223)", "sequence (P28223 whole entry)": "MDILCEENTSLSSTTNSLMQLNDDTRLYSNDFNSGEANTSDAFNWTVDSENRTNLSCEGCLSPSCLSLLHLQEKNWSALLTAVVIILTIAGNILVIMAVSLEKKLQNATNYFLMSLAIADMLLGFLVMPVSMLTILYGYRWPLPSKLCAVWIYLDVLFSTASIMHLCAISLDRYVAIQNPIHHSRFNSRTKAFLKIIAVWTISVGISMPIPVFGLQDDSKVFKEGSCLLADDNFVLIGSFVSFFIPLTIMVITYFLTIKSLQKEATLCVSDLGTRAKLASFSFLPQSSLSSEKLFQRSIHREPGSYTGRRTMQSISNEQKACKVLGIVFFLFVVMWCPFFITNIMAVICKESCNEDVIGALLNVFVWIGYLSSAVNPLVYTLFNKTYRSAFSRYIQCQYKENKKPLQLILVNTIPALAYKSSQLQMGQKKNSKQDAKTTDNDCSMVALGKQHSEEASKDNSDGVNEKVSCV"}, "[8]": {"system": "5HT2A receptors", "settings": "tumor necrosis factor-alpha-induced inflammation"}, "[9]": {"target": "D2 receptors (Homo sapiens, UniProt P14416)", "sequence (P14416 whole entry)": "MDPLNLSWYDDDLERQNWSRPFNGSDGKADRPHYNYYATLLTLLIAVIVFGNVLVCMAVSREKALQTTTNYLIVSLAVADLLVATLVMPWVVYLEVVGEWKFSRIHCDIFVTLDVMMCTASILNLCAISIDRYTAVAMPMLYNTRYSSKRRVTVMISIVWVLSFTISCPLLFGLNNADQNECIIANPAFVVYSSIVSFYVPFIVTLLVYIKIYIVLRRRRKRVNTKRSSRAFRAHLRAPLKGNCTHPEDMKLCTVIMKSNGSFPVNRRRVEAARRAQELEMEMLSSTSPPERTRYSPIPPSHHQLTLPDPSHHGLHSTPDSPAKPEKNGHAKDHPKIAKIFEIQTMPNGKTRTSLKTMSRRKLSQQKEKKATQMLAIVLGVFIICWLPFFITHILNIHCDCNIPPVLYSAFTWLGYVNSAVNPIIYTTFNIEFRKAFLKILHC"}}, "data": [{"compound": "CCN(CC)C(=O)[C@@H]1C=C2c3cccc4[nH]cc(c34)C[C@H]2N(C)C1", "note": "[LSD, lysergic acid diethylamide]", "values": [{"measurement": "pain relief compared with the narcotics meperidine and dihydromorphinone", "setting": "[1]", "result": "greater and longer lasting pain relief"}, {"measurement": "stimulation of 5-HT2B/C receptors", "setting": "[2]", "result": "stimulates"}, {"measurement": "agonist potency at serotonin 5-HT1 receptors", "setting": "[3]", "result": "potent agonists"}, {"measurement": "stimulation of D1-3 receptors", "setting": "[4]", "result": "stimulates"}, {"measurement": "interaction with / inhibition of the 5-HT transporter (SERT)", "setting": "[5]", "result": "does not interact"}, {"measurement": "subjective levels of experienced pain and unpleasantness", "setting": "[6]", "result": "decreased"}, {"measurement": "time that participants could tolerate cold water exposure", "setting": "[6]", "result": "significantly increased"}, {"measurement": "stimulation of the 5-HT2A receptor", "setting": "[7]", "result": "potently stimulates"}]}, {"compound": "COc1cc(CC(C)N)c(OC)cc1I", "note": "(stereo not shown) [R-DOI, 2,5-dimethoxy-4-iodoamphetamine]", "values": [{"measurement": "anti-inflammatory effect", "setting": "[8]", "result": "potent anti-inflammatory effect"}]}, {"compound": "COc1cc(CCN)cc(OC)c1OC", "note": "[mescaline]", "values": [{"measurement": "agonist potency at serotonin 5-HT1 receptors", "setting": "[3]", "result": "low potency"}, {"measurement": "affinity for D2 receptors", "setting": "[9]", "result": "no affinity"}]}, {"compound": "CN(C)CCc1c[nH]c2cccc(O)c12", "note": "[psilocin]", "values": [{"measurement": "agonist potency at serotonin 5-HT1 receptors", "setting": "[3]", "result": "potent agonists"}, {"measurement": "interaction with / inhibition of the 5-HT transporter (SERT)", "setting": "[5]", "result": "inhibits"}]}]}
